Patent publication US12336991B2, “Factor XIIA inhibitors” (UNIVERSITY OF LEEDS, priority 2018, dated 2025)

Assays:
Type in all cases: biochemical
FXa = FXa (Homo sapiens, UniProt P00742); assay: Determination of selectivity: FXa inhibition, chromogenic substrate S2765 assay; conditions: fold selectivity for FXIIa over FXa
Method: (§1) The activities of the compounds of the invention have been determined in vitro using the following assays protocols for the screening of activity of FXIIa and other proteases. Each of these assays were performed in a purified system employing the use of chromogenic assays in microplate plate wells. Chromogenic peptide substrates mimicking natural protein substrates are attached via an amide bond to a chromogenic group. Paranitroaniline (pNA) is released from the peptide following catalyses by the proteolytic enzyme; the absorbance increases and can be monitored at 405 nm.
(§2) All compounds were dissolved in 100% (v/v) DMSO to a stock concentration of 10 mM, the highest concentration of compound used in each assay is 500 μM. The final concentrations of DMSO were 5% (v/v) in 50 mM Tris 137 mM NaC pH 7.4. Where no test compound was added a final concentration of 5% DMSO was employed.
(§3) Determination of Selectivity
(§4) To determine selectivity of test compounds, these test compounds were assayed for inhibitory activity against other serine proteases including FXa and thrombin. Essentially compounds at increasing concentrations were incubated with each enzyme: FXa (5 nM) and thrombin (5 nM), for 10 mins at 37° C. followed the appropriate chromogenic substrate, S2765 ([…]), and GPR ([…]) respectively in 50 mM Tris, 137 mM NaCl, pH 7.4. Chromogenic substrates S2765 was from Chromogenix, and GPR from Bachem. Kinetic readings at 405 nm were monitored every 12 secs for a total duration of 3 hours at 37° C. Gradients of initial rates were determined and employed to calculate IC50 values. Values of IC50 were converted to Ki values based on the formula: Ki=IC50/(1+[Substrate]/Km)
(§5) Where [Substrate] denotes the concentration of substrate used in the assay and Km is the determined value of each enzyme with its own substrate.
(§6) The fold selectivity for FXIIa over thrombin for the compounds of the invention has been categorised based on the fold selectivity values, the categories being “+”, “++” and “+++”. The category “+” refers to fold selectivity values less than 10. The category “++” refers to a fold selectivity value of 10 to 100. The category “+++” refers to fold selectivity values greater than 100.
The fold selectivity for FXIIa over FXa for the compounds of the invention has been categorised based on the fold selectivity values, the categories being “o”, “oo” and “ooo”. The category “o” refers to fold selectivity values less than 10. The category “oo” refers to a fold selectivity value of 10 to 100. The category “ooo” refers to fold selectivity values greater than 100.

thrombin = target: T1, thrombin (Homo sapiens, UniProt P00734); assay: Determination of selectivity: thrombin inhibition, chromogenic substrate GPR assay; conditions: fold selectivity for FXIIa over thrombin
T1 construct: FXa (5 nM) and thrombin (5 nM)
Method: as §1, §2, §3, §4, §5, §6

FXIIa = target: T2, FXIIa (Homo sapiens, UniProt P00748); assay: Determination of Factor XIIa inhibition, chromogenic substrate S-2302 assay; conditions: human FXIIa alpha
T2 sequence (P00748 373-615 limits assumed): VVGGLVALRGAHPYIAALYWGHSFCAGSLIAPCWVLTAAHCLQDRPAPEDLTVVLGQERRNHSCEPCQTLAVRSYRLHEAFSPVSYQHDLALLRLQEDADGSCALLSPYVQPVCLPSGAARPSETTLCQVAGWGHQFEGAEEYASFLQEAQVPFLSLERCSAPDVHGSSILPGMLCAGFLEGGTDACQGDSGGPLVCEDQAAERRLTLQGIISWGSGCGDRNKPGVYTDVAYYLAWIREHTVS
T2 sequence (P00748 20-372 partner limits assumed): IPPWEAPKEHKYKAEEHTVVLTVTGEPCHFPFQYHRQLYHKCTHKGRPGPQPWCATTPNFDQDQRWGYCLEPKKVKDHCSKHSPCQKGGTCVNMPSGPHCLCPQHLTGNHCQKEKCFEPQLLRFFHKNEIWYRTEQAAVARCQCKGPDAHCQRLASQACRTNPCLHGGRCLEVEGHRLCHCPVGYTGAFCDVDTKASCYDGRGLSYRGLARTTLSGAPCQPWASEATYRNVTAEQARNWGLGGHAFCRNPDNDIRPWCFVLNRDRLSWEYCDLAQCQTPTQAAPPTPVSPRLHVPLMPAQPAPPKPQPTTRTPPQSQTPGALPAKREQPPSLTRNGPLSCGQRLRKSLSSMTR
Method: as §1, §2
Determination of Factor XIa Inhibition
Factor XIa activity was measured using a chromogenic substrate S-2302 (Chromogenix). Various concentrations of compound were incubated with 10 nM of FXIIa and incubated at 37° C. for 10 minutes in 50 mM Tris, 137 mM NaCl, pH 7.4, prior to the addition of a final concentration of 450 µM S-2302 chromogenic substrate. Kinetic readings at 405 nm were monitored every 12 secs for a total duration of 3 hours at 37° C. Gradients of initial rates were determined and employed to calculate IC50 values. Values of IC50 were converted to Ki values based on the formula: Ki=IC50/(1+[Substrate]/Km).
The activity of the compounds of the invention has been categorised based on the Ki values, the categories being “*”, “**” and “***”. […] The category “**” refers to compounds with a Ki value of 0.2 μM to 2 μM.

Chain of FXa (P00742 235-488 limits assumed): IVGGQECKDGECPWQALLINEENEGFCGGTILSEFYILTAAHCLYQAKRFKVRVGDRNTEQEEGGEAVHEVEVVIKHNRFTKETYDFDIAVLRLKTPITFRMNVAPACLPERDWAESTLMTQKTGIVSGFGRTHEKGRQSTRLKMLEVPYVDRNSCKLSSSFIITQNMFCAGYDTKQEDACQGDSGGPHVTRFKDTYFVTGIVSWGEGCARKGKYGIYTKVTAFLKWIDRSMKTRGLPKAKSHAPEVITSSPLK
Chain of FXa (P00742 41-179 partner limits assumed): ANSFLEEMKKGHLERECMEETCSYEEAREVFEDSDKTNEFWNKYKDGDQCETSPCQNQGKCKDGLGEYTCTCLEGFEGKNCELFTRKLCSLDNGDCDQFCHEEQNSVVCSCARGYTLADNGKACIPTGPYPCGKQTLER

SMILES	FXa (human)/FXIIa alpha (human) (FXa)	Ki (FXIIa) [µM]	Thrombin (human)/FXIIa alpha (human) (thrombin)
Cn1nnc2cc(CNC(=O)[C@@H]3C[C@@H](Cc4ccc(F)cc4F)CN3C(=O)[C@H]3C[C@@H](c4ccccc4)CN3)ccc21 [Example M05361]	∘∘	0.2 to 2	++ (fold selectivity value of 10 to 100)
COc1ccc2c(c1)CCNC2C(=O)N1C[C@H](Cc2ccncc2)C[C@H]1C(=O)NCc1ccc2c(c1)nnn2C (stereo partly drawn) [Example M05462]	∘∘∘	0.2 to 2	+++ (fold selectivity values greater than 100)
CCOc1ccc(C[C@@H]2C[C@@H](C(=O)NCc3ccc4c(c3)nnn4C)N(C(=O)[C@H]3C[C@@H](c4ccccc4)CN3)C2)cc1 [Example M05382]	∘∘∘	0.2 to 2	+++ (fold selectivity values greater than 100)
Cn1nnc2cc(CNC(=O)[C@@H]3C[C@H](CC4CCOCC4)CN3C(=O)[C@H](N)CCC(=O)N3CCCC3)ccc21 [Example M05293]	∘∘	> 2	++ (fold selectivity value of 10 to 100)
Cn1nnc2cc(CNC(=O)[C@@H]3C[C@@H](Cc4ccc(OC(F)(F)F)cc4)CN3C(=O)[C@H]3C[C@@H](c4ccccc4)CN3)ccc21 [Example M05362]	∘∘	0.2 to 2	++ (fold selectivity value of 10 to 100)
COc1ccc(C[C@@H]2C[C@@H](C(=O)NCc3ccc4c(c3)nnn4C)N(C(=O)[C@H]3CC(c4ccccc4C)CN3)C2)cc1 (stereo partly drawn) [Example M05365]	∘∘∘	0.2 to 2	+++ (fold selectivity values greater than 100)
Cc1ccc(C[C@@H]2C[C@@H](C(=O)NCc3cc4cnccc4[nH]3)N(C(=O)[C@H](N)CCC(=O)N3CCCC3)C2)cc1 [Example M00968]	∘∘∘	< 0.2	+++ (fold selectivity values greater than 100)
COc1ccc(C[C@@H]2C[C@@H](C(=O)NCc3ccc4c(c3)nnn4C)N(C(=O)[C@H]3CC(c4c[nH]cn4)CN3)C2)cc1 (stereo partly drawn) [Example M05464]	∘∘	> 2	++ (fold selectivity value of 10 to 100)
COc1ccc(C[C@@H]2C[C@@H](C(=O)NCc3ccc4c(c3)nnn4C)N(C(=O)[C@H]3C[C@@H](c4cnn(C)c4)CN3C)C2)cc1 [Example M05474, (2S,4R)-4-(4-Methoxy-benzyl)-1-[(2R,4S)-1-methyl-4-(1-methyl-1H-pyrazol-4-yl)-pyrrolidine-2-carbonyl]-pyrrolidine-2-carboxylic acid (1-methyl-1H-benzotriazol-5-ylmethyl)-amide]	∘∘∘	0.2 to 2	+++ (fold selectivity values greater than 100)
COc1ccc(C[C@@H]2C[C@@H](C(=O)NCc3ccc4c(c3)nnn4C)N(C(=O)[C@H]3CC(c4cnccc4C)CN3)C2)cc1 (stereo partly drawn) [Example M05408]		> 2	
COc1ccc(C[C@@H]2C[C@@H](C(=O)NCc3ccc4c(c3)nnn4C)N(C(=O)[C@H]3CC(c4cnccc4C(F)(F)F)CN3)C2)cc1 (stereo partly drawn) [Example M05398]		> 2	

The next lines start with results.

FXa (human)/FXIIa alpha (human) (FXa)	Ki (FXIIa) [µM]	SMILES	Thrombin (human)/FXIIa alpha (human) (thrombin)
∘∘∘	< 0.2	COc1ccc(C[C@@H]2C[C@@H](C(=O)NCc3ccc4c(c3)nnn4C)N(C(=O)[C@H](N)CCC(=O)N3CCCC3C)C2)cc1 (stereo partly drawn) [Example M05391]	+++ (fold selectivity values greater than 100)
∘∘	> 2	Cn1nnc2cc(CNC(=O)[C@@H]3C[C@H](NC(=O)CCCc4ccccc4)CN3C(=O)[C@H](N)CCc3ccccc3)ccc21 [Example M05196]	++ (fold selectivity value of 10 to 100)
∘∘∘	> 2	Cn1nnc2cc(CNC(=O)[C@@H]3C[C@@H](Cc4ccncc4)CN3C(=O)[C@@H](CCC(=O)N3CCCC3)NS(C)(=O)=O)ccc21 [Example M05268]	+++ (fold selectivity values greater than 100)
∘∘∘	< 0.2	COc1ccc(C[C@@H]2C[C@@H](C(=O)NCc3ccc4c(c3)nnn4C)N(C(=O)[C@H](N)CCC(=O)N3CCC[C@@H]3C(C)C)C2)cc1 [Example M05412]	+++ (fold selectivity values greater than 100)
∘∘	0.2 to 2	COc1ccc(C[C@@H]2C[C@@H](C(=O)NCc3ccc4c(c3)nnn4C)N(C(=O)[C@H](N)CCc3ccc(F)cc3)C2)cc1 [Example M00949]	+++ (fold selectivity values greater than 100)
∘∘∘	< 0.2	COc1ccc(C[C@@H]2C[C@@H](C(=O)NCc3ccc4c(c3)nnn4C)N(C(=O)[C@H](N)CCC(=O)N3CCC[C@@H]3C#N)C2)cc1 [Example M05458]	+++ (fold selectivity values greater than 100)
∘∘∘	0.2 to 2	Cn1nccc1-c1cccc(C[C@@H]2C[C@@H](C(=O)NCc3ccc4c(c3)nnn4C)N(C(=O)[C@H](N)CCC(=O)N3CCCC3)C2)c1 [Example M05350, (2S,4R)-1-((R)-2-Amino-5-oxo-5-pyrrolidin-1-yl-pentanoyl)-4-[3-(2-methyl-2H-pyrazol-3-yl)-benzyl]-pyrrolidine-2-carboxylic acid (1-methyl-1H-benzotriazol-5-ylmethyl)-amide]	+++ (fold selectivity values greater than 100)
∘∘	> 2	Cn1nnc2cc(CNC(=O)[C@@H]3C[C@H](NCc4ccc(Cl)cc4)CN3C(=O)[C@H](N)CCc3ccccc3)ccc21 [Example M05160]	++ (fold selectivity value of 10 to 100)
	> 2	CC(=O)N[C@H]1C[C@@H](C(=O)NCc2ccc3c(c2)nnn3C)N(C(=O)[C@H](N)CCc2ccccc2)C1 [Example M05144, (2S,4S)-4-Acetylamino-1-((R)-2-amino-4-phenyl-butyryl)-pyrrolidine-2-carboxylic acid (1-methyl-1H-benzotriazol-5-ylmethyl)-amide]	
	> 2	Cn1nnc2cc(CNC(=O)[C@@H]3C[C@@H](Oc4ccccc4)CN3C(=O)[C@H](N)CCc3ccccc3)ccc21 [Example M00948]	
	> 2	COc1ccc(C[C@@H]2C[C@@H](C(=O)NCc3ccc4c(c3)nnn4C)N(C(=O)C(N)CC(C)(C)c3ccccc3)C2)cc1 (stereo partly drawn) [Example M05415]	
	> 2	COc1ccc(C[C@@H]2C[C@@H](C(=O)NCc3ccc4c(c3)nnn4C)N(C(=O)C(N)CC(C)(C)c3ccccc3)C2)cc1 (stereo partly drawn) [Example M05416]	
